Assay results from PubChem BioAssay (NCI).
Values joined by “and” are separate entries in the source; they are usually repeats but may differ in a detail not shown here. Equal entries are not always repeated.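 Cultured in 96-well plates, cells were exposed to test compound for 48 hours across five concentrations. Abbreviation: GI50, concentration required for 50% inhibition of growth. The concentration for full growth arrest is given as TGI.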

How the values were obtained:
Test in all cases: DTP human tumour cell line panel, 48 h
RPMI-8226 leukemia = tested on: RPMI-8226 leukemia
NCI-H460 lung = tested on: NCI-H460 lung
ACHN renal = tested on: ACHN renal
HT29 colon = tested on: HT29 colon
PC-3 prostate = tested on: PC-3 prostate
OVCAR-4 ovarian = tested on: OVCAR-4 ovarian
MDA-MB-435 = tested on: MDA-MB-435
T-47D breast = tested on: T-47D breast
NCI-H23 lung = tested on: NCI-H23 lung
NCI-H522 lung = tested on: NCI-H522 lung

| SMILES | TGI (RPMI-8226 leukemia) | TGI (NCI-H460 lung) | TGI (ACHN renal) | TGI (HT29 colon) [µM] | TGI (PC-3 prostate) [µM] | TGI (OVCAR-4 ovarian) | TGI (MDA-MB-435) [µM] | TGI (T-47D breast) [µM] | TGI (NCI-H23 lung) | TGI (NCI-H522 lung) | GI50 (RPMI-8226 leukemia) [µM] | GI50 (NCI-H460 lung) [µM] | GI50 (ACHN renal) [µM] | GI50 (HT29 colon) [µM] | GI50 (PC-3 prostate) [µM] | GI50 (OVCAR-4 ovarian) [µM] | GI50 (MDA-MB-435) [µM] | GI50 (T-47D breast) [µM] | GI50 (NCI-H23 lung) [µM] | GI50 (NCI-H522 lung) [µM] |
| --- | --- | --- | --- | --- | --- | --- | --- | --- | --- | --- | --- | --- | --- | --- | --- | --- | --- | --- | --- | --- |
| CN1CCN(CN2C(=O)C3C4C=CC(C3C2=O)C2C3C(=O)N(CN5CCN(C)CC5)C(=O)C3C42)CC1 (configuration not stated) | 59.2 µM and 53.2 µM and 71.5 µM | 32.3 µM and 37.9 µM and 27.3 µM | 73.6 µM and > 61.3 µM and 48.5 µM | > 100 | 97.9 | 38.4 µM and 45.1 µM and 53.5 µM | 31.3 | > 100 | 43.9 µM and 39.6 µM and 75.2 µM | 39.6 µM and 25.4 µM | – | – | – | – | – | – | – | – | – | – |
| COc1ccc2c(c1)[nH]c(=O)c1c3cc(C)c(C)cc3cn21 | 0.0656 µM | 1.02 µM | 1.58 µM | – | 1.58 | 3.95 µM | – | 2.9 | 0.392 µM | < 0.0275 µM | < 0.01 | < 0.018 | < 0.0173 | < 0.01 | < 0.01 | 0.032 | < 0.01 | 1.17 | 0.0305 | < 0.0115 |
| O=C(CCCCCCSc1nc(-c2ccccc2)cc(-c2ccc(Cl)cc2)n1)NO | 6.19 µM | 10.2 µM | 3.64 µM | 11.4 | 10.5 | 13.5 µM | 10.9 | 4.98 | 5.13 µM | 8.05 µM | 0.64 | 1.22 | 1.58 | 2.05 | 1.98 | 2.52 | 2.24 | 1.62 | 1.88 | 1.13 |
| COc1cc2c(cc1OC)C(=O)/C(=C/c1cccc(OCC(=O)c3ccccc3)c1)C2 | 3.9 µM | 91.9 µM | > 100 µM | > 100 | > 100 | > 100 µM | > 100 | 68.8 | > 100 µM | 50.5 µM | 1.4 | 13.3 | 26.7 | 12.9 | 5.11 | 30.4 | 23.1 | 4.34 | 22.3 | 4.6 |
| CNC(=O)c1cc(OC2CCC(NC(=O)Nc3ccc(Cl)c(C(F)(F)F)c3)CC2)ccn1 (configuration not stated) | 14.8 µM | 28.6 µM | 31.5 µM | 16.2 | > 44.6 | 49.6 µM | 24.8 | 39.4 | 20.4 µM | 16.9 µM | 2.86 | 6.92 | 7.76 | 4.25 | 3.51 | 4.53 | 4.16 | 5.31 | 4.47 | 4.16 |
| Cc1ccc(CNc2c3ccccc3nc3ccccc23)cc1 | 3.86 µM | 5.26 µM | 3.95 µM | 10.7 | 7.11 | 5.36 µM | 3.1 | 4.83 | 4.04 µM | 4.75 µM | 1.48 | 2.02 | 1.63 | 2.08 | 1.87 | 1.54 | 1.63 | 1.87 | 1.59 | 1.67 |
| COc1cc(/C(C#N)=C/c2ccc3c(c2OC)OCO3)cc2c1OCO2 | 33.2 µM | 14.2 µM | > 58.9 µM | 1.04 | > 78.4 | > 100 µM | 0.0664 | > 83.6 | 11.6 µM | 0.283 µM | 0.146 | 0.0452 | 2.43 | 0.0379 | 0.0967 | 1.45 | 0.0209 | 6.18 | 0.162 | 0.0324 |
| COc1ccc(N=C2CSc3nnc(-c4cc(F)c(Cl)cc4Cl)n3N2)cc1 | 11 µM | 12.3 µM | 11.5 µM | 2.11 | 13.9 | 7.04 µM | 0.785 | 32.7 | 15.9 µM | 0.885 µM | 1.41 | 1.07 | 2.33 | 0.395 | 1.17 | 1.82 | 0.208 | 4.03 | 2.24 | 0.296 |
| CCN(CC)CCOc1nc2ccc(OC)cc2c2c1-c1ccc(OC)cc1C2=O | 2.24 µM | 1.43 µM | 1.79 µM | 1.86 | 2.91 | 3.17 µM | 2.09 | 26.3 | 3.23 µM | 1.81 µM | 0.601 | 0.371 | 0.476 | 0.545 | 1.3 | 1.02 | 0.69 | 11 | 1.25 | 0.394 |
| Cc1c2c(nn1-c1ccc(S(=O)(=O)NC(=S)Nc3ccccc3)cc1)-c1ccccc1CC2 | 42.4 µM | – | > 50 µM | > 50 | > 50 | > 50 µM | > 50 | > 50 | > 50 µM | > 50 µM | 15.5 | – | > 50 | > 50 | 39.9 | > 50 | 14.4 | > 50 | 46.8 | 21.5 |
| COc1ccc(-c2nc3sc(C)cn3c2/C=C/C(=O)c2cc(OC)c(OC)c(OC)c2)cc1 | – | – | > 100 µM | > 100 | 7.17 | > 100 µM | 7.49 | 8.94 | – | 3.14 µM | – | – | 4.13 | 3.95 | 2.28 | 3.15 | 2.61 | 2.42 | – | 0.88 |
| CN(C)c1cccc2c(S(=O)(=O)N[C@H]3CC[C@H]4[C@@H]5CCc6cc(O)ccc6[C@H]5CC[C@]34C)cccc12 | 7.8 µM | 4.52 µM | 14.1 µM | 5.45 | > 100 | 13.8 µM | 2.69 | 30.1 | 22 µM | – | 2.32 | 2 | 3.1 | 2.5 | 2.36 | 2.8 | 1.15 | 3.47 | 2.99 | – |
| COc1cc([C@H]2c3cc4c(cc3O[C@@]3(O)COC(=O)[C@@H]23)OCO4)cc(OC)c1OC | > 100 µM | > 100 µM | > 100 µM | > 100 | > 100 | > 100 µM | > 100 | > 100 | – | > 100 µM | – | – | – | – | – | – | – | – | – | – |
